Source: article PMC12751012, “Nanoscale Direct-to-Biology Optimization and Structural Insights into Selective S. aureus TrmD Inhibitors” (Journal of Medicinal Chemistry, 2025)

These compounds were tested against T1, S. aureus TrmD (Staphylococcus aureus, UniProt Q2FZ43) (assay: Fluorescence polarization (FP) assay, tracer 4, S. aureus TrmD). Details: apparent affinity, purified compound, 500 nM TrmD, 10 nM tracer 4; read-out: KD S. aureus TrmD (FP displacement assay).
T1 construct: made in house; host or cells: E. coli BL21
T1 sequence (Q2FZ43 1-245): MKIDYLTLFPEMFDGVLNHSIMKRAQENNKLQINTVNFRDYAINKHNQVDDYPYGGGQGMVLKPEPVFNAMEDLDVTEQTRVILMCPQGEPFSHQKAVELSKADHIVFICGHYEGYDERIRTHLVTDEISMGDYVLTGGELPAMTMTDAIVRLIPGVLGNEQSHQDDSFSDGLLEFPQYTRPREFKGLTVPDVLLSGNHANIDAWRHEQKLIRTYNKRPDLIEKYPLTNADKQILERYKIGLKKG
Type: binding
Description: To enable the screening of hundreds of nanomole-scale synthesized compounds, the implementation of a high-throughput-capable RNA methyltransferase (MTase) assay is considered fundamental. […] In this assay format, a fluorescent, SAM-pocket binding tracer can be displaced by the compound under investigation, and the resulting change in fluorescence polarization defines the read-out of the inhibitor compound’s affinity (Figure A).
Fluorescence polarization (FP) assays were performed as follows. The assays for H. influenzae TrmD have been described previously. All assays were conducted in technical triplicate using black 96-well half area plates. For the FP assays, a tracer (20 nM Cy5TPD for E. coli and H. influenzae TrmD, 10 nM tracer 4 for S. aureus TrmD) was mixed with the respective enzyme (2 μM E. coli TrmD, 2 μM H. influenzae TrmD, 500 nM S. aureus TrmD) in buffer (E. coli and H. influenzae TrmD: 50 mM HEPES, 500 mM NaCl, 5% Glycerol, pH 7.5, S. aureus TrmD: 40 mM Tris HCl, 100 mM NaCl, 10 mM MgCl2, 5% Glycerol, pH 7.5). The compounds were added in varying concentrations for K D-value determination. […] The Z-factor for tracer 4 was determined by measuring 48 replicates of the free tracer (positive controls, PC) and 48 replicates of a mixture of enzyme and tracer (negative controls, NC). The Z-factor is defined in terms of the means (μ) and standard deviations (σ) of the positive and negative controls and calculated as Z = 1–(3*(σnc + σpc)/(μnc–μpc)). […] Polarization values (mP) were determined from polarization-specific parallel and orthogonal fluorescence intensities. K D-values were calculated in GraphPad Prism 8.0.1 using the four-parameter Hill equation: y(% tracer bound) = bottom + ([ligand]-slope) × (top–bottom)/([ligand]-slope + K Dslope).
`C#Cc1c[nH]c2nc[nH]c(=O)c12` [Compound 7, 5-Ethynyl-3,7-dihydro-4H-pyrrolo[2,3-d]pyrimidin-4-one] was tested, and the Kd was over 100 µM. For `CC(=O)NCCCn1cc(-c2c[nH]c3nc[nH]c(=O)c23)nn1` [Compound 8a, N-(3-(4-(4-Oxo-4,7-dihydro-3H-pyrrolo[2,3-d]pyrimidin-5-yl)-1H-1,2,3-triazol-1-yl)propyl)acetamide], the Kd was 10.4 ± 1.8 µM.

Same assay, conditions: crude nanomole-scale reaction mixture; read-out: KD(in situ) S. aureus TrmD (FP displacement assay)
`CC(=O)NCCCn1cc(-c2c[nH]c3nc[nH]c(=O)c23)nn1` [Compound 8a, N-(3-(4-(4-Oxo-4,7-dihydro-3H-pyrrolo[2,3-d]pyrimidin-5-yl)-1H-1,2,3-triazol-1-yl)propyl)acetamide] showed a Kd of 4.98 µM.

These compounds were tested against T1, S. aureus TrmD (assay: nanoSAR direct-to-biology FP displacement screening of crude triazoles). Details: crude triazole at 1 μM, assuming full conversion; 500 nM TrmD, 10 nM tracer 4.
Type: binding
How it was run: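 Crude CuAAC triazoles from alkyne 7 and 320 diverse azides were screened by FP displacement of 10 nM tracer 4 from 500 nM S. aureus TrmD. Buffer was 40 mM Tris HCl, 100 mM NaCl, 10 mM MgCl2, 5% glycerol, pH 7.5.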
In the case of `C[C@@H](CN)n1cc(-c2c[nH]c3nc[nH]c(=O)c23)nn1` [Compound 03H12, O=C1NC=NC2=C1C(C3=CN([C@H](CN)C)N=N3)=CN2], the “% displaced tracer” value is reported as 20%.

Same assay, conditions: crude triazole at 1 μM, assuming full conversion; 500 nM TrmD, 10 nM tracer 4; read-out: % displaced tracer
With `O=c1[nH]cnc2[nH]cc(-c3cn(C[C@@H]4CCCCNC4)nn3)c12` [Compound 03H08, O=C1NC=NC=2NC=C(C=3N=NN(C3)C[C@H]4C[NH2+]CCCC4)C12] the inhibition at 1 µM was 81%. In the case of `NCCCCCCn1cc(-c2c[nH]c3nc[nH]c(=O)c23)nn1` [Compound 03H09, O=C1NC=NC=2NC=C(C=3N=NN(C3)CCCCCC[NH3+])C12], the inhibition at 1 µM is reported as 50%. With `O=c1[nH]cnc2[nH]cc(-c3cn(CCOc4ccc(Cl)cc4)nn3)c12` [Compound 03H10, Clc1ccc(OCCN2N=NC(C=3C=4C(=O)NC=NC4NC3)=C2)cc1] the inhibition at 1 µM was 85%. In the case of `CC(C)(C)n1cc(-c2c[nH]c3nc[nH]c(=O)c23)nn1` [Compound 03H11, O=C1NC=NC=2NC=C(C=3N=NN(C3)C(C)(C)C)C12], the inhibition at 1 µM is reported as 11%. In the case of `C[C@@H](O)Cn1cc(-c2c[nH]c3nc[nH]c(=O)c23)nn1` [Compound 04A01, O=C1NC=NC=2NC=C(C=3N=NN(C3)C[C@H](O)C)C12], the inhibition at 1 µM is reported as 15%. `CC[C@H](c1ccccn1)n1cc(-c2c[nH]c3nc[nH]c(=O)c23)nn1` [Compound 04A02, O=C1NC=NC=2NC=C(C=3N=NN(C3)[C@@H](c4ncccc4)CC)C12] gave an inhibition at 1 µM of 15%. In the case of `CC(C)(C)Cn1cc(-c2c[nH]c3nc[nH]c(=O)c23)nn1` [Compound 04A03, O=C1NC=NC=2NC=C(C=3N=NN(C3)CC(C)(C)C)C12], the inhibition at 1 µM is reported as 19%. With `O=c1[nH]cnc2[nH]cc(-c3cn(Cc4ccncc4)nn3)c12` [Compound 04A04, O=C1NC=NC=2NC=C(C=3N=NN(C3)Cc4ccncc4)C12] the inhibition at 1 µM was 11%. For `O=c1[nH]cnc2[nH]cc(-c3cn([C@H]4C=CCCCC4)nn3)c12` [Compound 04B01, O=C1NC=NC=2NC=C(C=3N=NN(C3)[C@H]4C=CCCCC4)C12], the inhibition at 1 µM was 32%. `Cn1nncc1-n1cc(-c2c[nH]c3nc[nH]c(=O)c23)nn1` [Compound 04B02, O=C1NC=NC=2NC=C(C=3N=NN(C=4N(N=NC4)C)C3)C12] gave an inhibition at 1 µM of 63%. `O=c1[nH]cnc2[nH]cc(-c3cn(-c4ccc(CO)cc4)nn3)c12` [Compound 04B03, O=C1NC=NC=2NC=C(C=3N=NN(c4ccc(cc4)CO)C3)C12] gave an inhibition at 1 µM of 47%. `O=c1[nH]cnc2[nH]cc(-c3cn(CCO)nn3)c12` [Compound 04B04, O=C1NC=NC=2NC=C(C=3N=NN(C3)CCO)C12] showed an inhibition at 1 µM of 63%. `Cc1cncc(CCn2cc(-c3c[nH]c4nc[nH]c(=O)c34)nn2)n1` [Compound 04C01, O=C1NC=NC=2NC=C(C=3N=NN(C3)CCc4nc(cnc4)C)C12] gave an inhibition at 1 µM of 69%. For `O=c1[nH]cnc2[nH]cc(-c3cn(Cc4ccc(Cl)s4)nn3)c12` [Compound 04C02, ClC=1SC(=CC1)CN2N=NC(C=3C=4C(=O)NC=NC4NC3)=C2], the inhibition at 1 µM was 92%. Compound `CC(C)(C)OC(=O)N1CC[C@H](C2CC2)[C@H]1Cn1cc(-c2c[nH]c3nc[nH]c(=O)c23)nn1` [Compound 04C03, O=C(OC(C)(C)C)N1[C@@H]([C@@H](C2CC2)CC1)CN3N=NC(C=4C=5C(=O)NC=NC5NC4)=C3] has an inhibition at 1 µM of 52%. For `O=c1[nH]cnc2[nH]cc(-c3cn([C@@H]4CC[C@H]4F)nn3)c12` [Compound 04C04, F[C@H]1[C@H](N2N=NC(C=3C=4C(=O)NC=NC4NC3)=C2)CC1], the inhibition at 1 µM was 21%. With `O=C1CCC[C@@H](Cn2cc(-c3c[nH]c4nc[nH]c(=O)c34)nn2)N1` [Compound 04D01, O=C1NC=NC=2NC=C(C=3N=NN(C3)C[C@H]4NC(=O)CCC4)C12] the inhibition at 1 µM was 75%. `C[C@H]1CCCC[C@]1(C)n1cc(-c2c[nH]c3nc[nH]c(=O)c23)nn1` [Compound 04D02, O=C1NC=NC=2NC=C(C=3N=NN(C3)[C@@]4([C@H](CCCC4)C)C)C12] was tested, and the inhibition at 1 µM was 27%. `CO[C@H]1COC[C@@H]1n1cc(-c2c[nH]c3nc[nH]c(=O)c23)nn1` [Compound 04D03, O=C1NC=NC=2NC=C(C=3N=NN(C3)[C@@H]4[C@@H](OC)COC4)C12] gave an inhibition at 1 µM of 37%. `O=c1[nH]cnc2[nH]cc(-c3cn([C@H]4COC[C@@H]4n4cccn4)nn3)c12` [Compound 04D04, O=C1NC=NC=2NC=C(C=3N=NN(C3)[C@@H]4[C@@H](N5N=CC=C5)COC4)C12] was tested, and the inhibition at 1 µM was 51%. `O=C1CC[C@@H](Cn2cc(-c3c[nH]c4nc[nH]c(=O)c34)nn2)O1` [Compound 04E02, O=C1O[C@H](CN2N=NC(C=3C=4C(=O)NC=NC4NC3)=C2)CC1] gave an inhibition at 1 µM of 22%. Compound `O=c1[nH]cnc2[nH]cc(-c3cn(Cc4nnc(C5CC5)o4)nn3)c12` [Compound 04E03, O=C1NC=NC=2NC=C(C=3N=NN(C3)CC=4OC(=NN4)C5CC5)C12] has an inhibition at 1 µM of 44%. In the case of `COc1ccc(C)cc1[C@@H](C)n1cc(-c2c[nH]c3nc[nH]c(=O)c23)nn1` [Compound 04E04, O=C1NC=NC=2NC=C(C=3N=NN(C3)[C@@H](c4c(OC)ccc(c4)C)C)C12], the inhibition at 1 µM is reported as 65%. In the case of `O=c1[nH]cnc2[nH]cc(-c3cn(Cc4ccno4)nn3)c12` [Compound 04F02, O=C1NC=NC=2NC=C(C=3N=NN(C3)CC=4ON=CC4)C12], the inhibition at 1 µM is reported as 92%. Compound `O=c1[nH]cnc2[nH]cc(-c3cn(C[C@H](O)c4ccccc4)nn3)c12` [Compound 04F03, O=C1NC=NC=2NC=C(C=3N=NN(C3)C[C@H](O)c4ccccc4)C12] has an inhibition at 1 µM of 57%. `O=c1[nH]cnc2[nH]cc(-c3cn(-c4ccccc4)nn3)c12` [Compound 04F04, O=C1NC=NC=2NC=C(C=3N=NN(c4ccccc4)C3)C12] gave an inhibition at 1 µM of 33%. Compound `Cc1c[nH]nc1Cn1cc(-c2c[nH]c3nc[nH]c(=O)c23)nn1` [Compound 04G01, O=C1NC=NC=2NC=C(C=3N=NN(C3)CC4=NNC=C4C)C12] has an inhibition at 1 µM of 87%. Work on `O=c1[nH]cnc2[nH]cc(-c3cn(CCc4ccccn4)nn3)c12` [Compound 04G02, O=C1NC=NC=2NC=C(C=3N=NN(C3)CCc4ncccc4)C12] yielded an inhibition at 1 µM of 89%. For `O=C1NCCN1CCn1cc(-c2c[nH]c3nc[nH]c(=O)c23)nn1` [Compound 04G03, O=C1N(CCN2N=NC(C=3C=4C(=O)NC=NC4NC3)=C2)CCN1], the inhibition at 1 µM was 15%. Compound `O=c1[nH]cnc2[nH]cc(-c3cn(Cc4nccs4)nn3)c12` [Compound 04G04, S1C(=NC=C1)CN2N=NC(C=3C=4C(=O)NC=NC4NC3)=C2] has an inhibition at 1 µM of 68%. `C[C@H](c1csc2ccccc12)n1cc(-c2c[nH]c3nc[nH]c(=O)c23)nn1` [Compound 04H01, S1c2c(cccc2)C(=C1)[C@H](N3N=NC(C=4C=5C(=O)NC=NC5NC4)=C3)C] gave an inhibition at 1 µM of 87%. `NC(=O)C1(n2cc(-c3c[nH]c4nc[nH]c(=O)c34)nn2)CC1` [Compound 04H02, O=C1NC=NC=2NC=C(C=3N=NN(C3)C4(C(=O)N)CC4)C12] gave an inhibition at 1 µM of 33%. Work on `O=c1[nH]cnc2[nH]cc(-c3cn(C[C@@H]4CCCCC4(F)F)nn3)c12` [Compound 04H03, F[C@@]1(F)[C@H](CN2N=NC(C=3C=4C(=O)NC=NC4NC3)=C2)CCCC1] yielded an inhibition at 1 µM of 78%. `O=c1[nH]cnc2[nH]cc(-c3cn(-c4cccc(F)c4)nn3)c12` [Compound 04H04, Fc1cc(N2N=NC(C=3C=4C(=O)NC=NC4NC3)=C2)ccc1] gave an inhibition at 1 µM of 16%.
